The results in this text go back to paper PMC5706701, “Development of a homogenous high-throughput assay for inositol hexakisphosphate kinase 1 activity” (PLoS ONE, 2017).

Where a name gives a salt, the structure may show the parent alone. Read-outs that look alike come from different tables or passages of the source.

This assay addresses T1, Human IP6K1 (Homo sapiens, UniProt Q92551).
T1 construct: GST (N, cleaved yes); made in house; host or cells: C43 E. coli, pGEX-6P-2
Put plainly: IP6K1 high-throughput screen of the Sigma LOPAC (ADP-Glo Max, single point).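 Note: final compound concentration 10µM in 5% DMSO.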 Format: biochemical.

[1] abbreviates: LOPAC single-point screen, ADP-Glo Max raw signal per well.
Where [2] appears, read: LOPAC single-point screen, Z-score against plate average and StDev.
[3] abbreviates: LOPAC single-point screen, ADP-Glo Max luminescence raw signal per well.
[4] abbreviates: LOPAC single-point screen, Z-score relative to plate average and StDev.
The mark [5] stands for this setting: Sigma LOPAC single-point screen, ADP-Glo Max raw signal per well.
Setting [6] is: Sigma LOPAC single-point screen, Z-score from plate average and StDev.
[7] abbreviates: LOPAC single-point screen, Z-score from raw signal with plate average and StDev.

T1 sequence (Q92551 whole entry): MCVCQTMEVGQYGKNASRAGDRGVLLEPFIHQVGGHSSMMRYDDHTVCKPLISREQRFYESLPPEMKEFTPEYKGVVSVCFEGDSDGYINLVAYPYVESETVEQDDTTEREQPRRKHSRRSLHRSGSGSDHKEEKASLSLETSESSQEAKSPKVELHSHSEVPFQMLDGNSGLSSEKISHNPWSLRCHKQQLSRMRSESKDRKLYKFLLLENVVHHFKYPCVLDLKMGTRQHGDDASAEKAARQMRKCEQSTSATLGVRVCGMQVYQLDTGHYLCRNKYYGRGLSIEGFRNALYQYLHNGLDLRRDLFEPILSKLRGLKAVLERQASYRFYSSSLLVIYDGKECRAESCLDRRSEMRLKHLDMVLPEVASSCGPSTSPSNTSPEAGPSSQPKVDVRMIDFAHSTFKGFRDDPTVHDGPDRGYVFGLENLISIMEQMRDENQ

For the compound `NCCCCN` [Putrescine dihydrochloride], under setting [1], the “Raw Signal” value turned out to be 56490. Under setting [2], the Z-score amounted to 0.09057.

For `O=c1[nH]c2ccccc2n1CCCN1CCN(C(c2ccccc2)c2ccccc2)CC1` [Oxatomide], the “Raw Signal” value under setting [1] is recorded as 55062. Under setting [2], this compound had a Z-score of 0.1123.

With `NC[C@@H]1O[C@H](O[C@H]2[C@@H](O)[C@H](O[C@@H]3[C@@H](O)[C@H](N)C[C@H](N)[C@H]3O[C@H]3O[C@H](CO)[C@@H](O)[C@H](O)[C@H]3N)O[C@@H]2CO)[C@H](N)[C@@H](O)[C@@H]1O` [Paromomycin sulfate], the “Raw Signal” value under setting [1] was 55765. The Z-score under setting [2] is given as -0.05028.

With `NC/C=C\C(=O)O` [cis-4-Aminocrotonic acid], the “Raw Signal” value under setting [3] came out at 52551. Under setting [4], this compound returned a Z-score of -0.6747.

Take `CN(C)CC/C=C1/c2ccccc2Sc2ccc(Cl)cc21` [Chlorprothixene hydrochloride]: under setting [5], the “Raw Signal” value is 61517. Also, the Z-score under setting [6] turned out to be 0.6347.

Take `NCCNC(=O)Cc1ccc(NC(=O)Cc2ccc(Nc3ncnc4c3ncn4[C@@H]3O[C@H](CO)[C@@H](O)[C@H]3O)cc2)cc1` [Adenosine amine congener]: under setting [1], the “Raw Signal” value worked out at 58651. Also, the Z-score under setting [2] is on record as 0.13.

In the case of `NS(=O)(=O)c1cc2c(cc1Cl)NCNS2(=O)=O` [Hydrochlorothiazide], under setting [1], the “Raw Signal” value amounted to 56632. Under setting [2], this compound yielded a Z-score of 0.2975.

For `CCCN1CCO[C@@H]2c3cc(O)ccc3OC[C@H]21.Cl` [S(+)-PD 128,907 hydrochloride], the “Raw Signal” value under setting [1] is recorded as 56406. The same compound returned a Z-score under setting [2] of 0.07425.

As to `C[C@@]12C(=O)OC(=O)[C@]1(C)[C@H]1CC[C@@H]2O1` [Cantharidin], the “Raw Signal” value under setting [5] was found to be 61165. This compound showed a Z-score under setting [6] of 0.5727.

On to `O=C(O)CCCCCCCC(=O)O` [Azelaic acid], for which the “Raw Signal” value under setting [5] was determined as 63677. The Z-score under setting [6] is reported as 1.015.

On to `Cc1ccc(S(=O)(=O)N[C@@H](CCCCN)C(=O)CCl)cc1.Cl`, for which the “Raw Signal” value under setting [3] is reported as 53467. Under setting [4], this compound had a Z-score of -0.4967.

For `O=C(O)[C@H]1C[C@H](C(=O)O)N1` (relative stereo) [trans-Azetidine-2,4-dicarboxylic acid], the “Raw Signal” value under setting [1] is 57895. The Z-score under setting [2] is on record as -0.003188.

In the case of `C[C@]12CC[C@@H]3c4ccc(O)cc4CC[C@H]3[C@@H]1CCC2=O` [Estrone], the “Raw Signal” value under setting [1] worked out at 53604. The same compound yielded a Z-score under setting [7] of -0.3174.

On to `NC[C@H](O)c1ccc(O)c(O)c1.O=C(O)C(O)C(O)C(=O)O` [L(-)-Norepinephrine bitartrate], for which the “Raw Signal” value under setting [3] stood at 29897. The compound further yielded a Z-score under setting [4] of -4.934.

As to `CC(=O)Oc1cc(C(C)C)c(OCCN(C)C)cc1C` [Moxisylyte hydrochloride], the “Raw Signal” value under setting [1] is reported as 54969. This compound also showed a Z-score under setting [2] of 0.0967.

As for `CN(C)CCCN1c2ccccc2Sc2ccc(C(F)(F)F)cc21` [Triflupromazine hydrochloride], under setting [1], the “Raw Signal” value stood at 54007. Under setting [7], this compound showed a Z-score of -0.3918.

For `O=C(O)[C@@H]1C[C@H](C(=O)O)N1` [cis-Azetidine-2,4-dicarboxylic acid], under setting [3], the “Raw Signal” value is reported as 69033. This compound also displayed a Z-score (LOPAC single-point screen, Z-score from plate average and StDev) of 1.959.

`O=C(O)c1cc2cc(F)ccc2[nH]1` [5-Fluoroindole-2-carboxylic acid]: the “Raw Signal” value is given as 61098 and the Z-score came out at 0.5609.

Take `O=C1NCN(c2ccccc2)C12CCN(CCCC(c1ccc(F)cc1)c1ccc(F)cc1)CC2` [Fluspirilene]: the “Raw Signal” value under setting [3] was found to be 52037. Under setting [4], this compound showed a Z-score of -0.6357.

On to `CC(C)NCC(O)c1ccc(O)c(O)c1.Cl` (single isomer, unassigned; (-)) [(-)-Isoproterenol hydrochloride], for which the “Raw Signal” value under setting [3] is reported as 50939. In addition, the Z-score under setting [4] is recorded as -0.5804.

For `Cn1c(=O)c2c(ncn2C)n(C)c1=O` [Caffeine], under setting [1], the “Raw Signal” value came out at 57928. The same compound registered a Z-score under setting [2] of 0.002624.

With `CCN(CCCl)Cc1ccccc1Br.Cl` [DSP-4 hydrochloride], under setting [1], the “Raw Signal” value stood at 57186. Under setting [7], this compound had a Z-score of -0.1281.

For `COCC(=O)O[C@]1(CCN(C)CCCc2nc3ccccc3[nH]2)CCc2cc(F)ccc2[C@@H]1C(C)C` [Mibefradil dihydrochloride], the “Raw Signal” value under setting [3] stood at 48952. This compound gave a Z-score under setting [4] of -0.9143.

With `C=C(C)[C@H]1Cc2c(ccc3c2O[C@@H]2COc4cc(OC)c(OC)cc4[C@@H]2C3=O)O1` [Rotenone], the “Raw Signal” value under setting [5] was 59768. Also, the Z-score under setting [6] is listed as 0.7274.

Regarding `CC[N+](C)(CC)CC(=O)Nc1c(C)cccc1C.[Cl-]` [Lidocaine N-methyl hydrochloride], under setting [3], the “Raw Signal” value amounted to 51540. The compound further came in with a Z-score under setting [4] of -0.4795.

On to `CC(=O)Nc1nnc(S(N)(=O)=O)s1` [Acetazolamide], for which the “Raw Signal” value under setting [3] was 54920. Besides, the Z-score under setting [4] is on record as -0.5272.

Consider `CCCC1O[C@@H]2C[C@H]3[C@@H]4CCC5=CC(=O)C=C[C@]5(C)[C@H]4[C@@H](O)C[C@]3(C)[C@]2(C(=O)CO)O1` (stereo partly drawn) [Budesonide], for which, under setting [3], the “Raw Signal” value is on record as 54430. For the same compound, the Z-score under setting [4] is -0.6135.

`NCCCCN=C(N)N` [Agmatine sulfate]: under setting [1], the “Raw Signal” value came out at 56032. This compound had a Z-score under setting [7] of -0.3313.

In the case of `COc1ccccc1N1CCNCC1.Cl`, the “Raw Signal” value under setting [1] is on record as 57311. Besides, under setting [2], the Z-score came to 0.2501.

Take `CC/C(=C(\c1ccccc1)c1ccc(OCCN(C)C)cc1)c1ccccc1` [Tamoxifen citrate]: the “Raw Signal” value under setting [5] stood at 60879. Under setting [6], this compound came in with a Z-score of 0.9433.

As to `COc1ccc2[nH]cc(CCNC(C)=O)c2c1` [Melatonin], the “Raw Signal” value under setting [1] is listed as 53452. Moreover, under setting [7], the Z-score is on record as -0.1582.

Turning to S(-)-UH-301 hydrochloride, the “Raw Signal” value under setting [1] is 55198. Under setting [7], this compound gave a Z-score of -0.1604.

For the compound `Cc1cc(N)c2ccccc2[n+]1CCCCCCCCCCCCCC[n+]1c(C)cc(N)c2ccccc21` [Dequalinium analog, C-14 linker], the “Raw Signal” value under setting [3] stood at 52424. This compound displayed a Z-score under setting [4] of -0.5571.

On to `CN1C[C@@H](NS(=O)(=O)N(C)C)C[C@@H]2c3cccc4c3c(cn4C)C[C@H]21` [Mesulergine hydrochloride], for which, under setting [1], the “Raw Signal” value was 53840. In addition, the Z-score under setting [7] is recorded as -0.093.

With `C=CC[N+](C)(C)c1ccc(CCC(=O)CCc2ccc([N+](C)(C)CC=C)cc2)cc1.[Br-].[Br-]` [BW 284c51], under setting [1], the “Raw Signal” value is 57519. The compound further registered a Z-score under setting [2] of -0.06941.

For the compound `Nc1ccc(CCNc2ncnc3c2ncn3[C@@H]2O[C@H](CO)[C@@H](O)[C@H]2O)cc1` [N6-2-(4-Aminophenyl)ethyladenosine], the “Raw Signal” value under setting [3] was determined as 51199. For the same compound, the Z-score under setting [4] is given as -1.183.

`CC(C)(CO)Cc1cc(C(C)(C)C)c(O)c(C(C)(C)C)c1` [CGP-7930]: the “Raw Signal” value under setting [5] is 64858. The Z-score under setting [6] is 1.223.

Take `Cl.Fc1ccc(C(OCCCc2c[nH]cn2)c2ccc(F)cc2)cc1`: the “Raw Signal” value under setting [1] was found to be 51668. The Z-score under setting [7] is -0.458.

In the case of `CC(N)C(=O)OC(C)(C)Cc1ccc(Cl)cc1` (stereo not drawn) [Alaproclate hydrochloride], under setting [3], the “Raw Signal” value is recorded as 54794. This compound displayed a Z-score under setting [4] of -0.5494.
